Laboratory results from patent US20150072933A1, “NOVEL SEQUENCES FOR THE CONTROL OF REPRODUCTION IN FISH” (Yissum Research Development Company of the Hebrew …, priority 2011, published 2015).
“Also recorded” adds a separate entry of the source. Where a SMILES comes first, the peptide text is derived from it.

How the values were obtained:
zfTac3rb [1] = assay: Receptor transactivation assay, CRE-Luc reporter (PKA activation), COS-7 cells expressing zfTac3rb; format: cell-based, zebrafish; conditions: mean ± SEM
Experimental: (§1) In order to study the signaling pathways of the novel zebrafish NKBs, the entire coding regions of zftac3ra (denoted by SEQ ID NO:6) or zftac3rb (denoted by SEQ ID NO:7), or the cDNA clone for human NK3R (obtained from the Missouri S&T cDNA Resource Center, were inserted into pcDNA3.1 (Invitrogen). The luciferase assay was conducted according to Biran et al., 2008 [4] COS-7 cells were grown in DMEM supplemented with 10% FBS, 1% glutamine, 100 U/ml penicillin, and […] streptomycin (Biological Industries) under 5% CO2 until confluent. Cotransfection of either pc-zftac3ra, pc-zftac3rb or pc-Htac3r (at 3 μg/plate), a reporter plasmid (at 2 μg/plate), and pCMV-β-galactosidase (at 1 μg/plate) was carried out with FuGENE 6.0 reagent (Roche). The cells were serum starved for 36 h, stimulated with vehicle or various concentrations of either human (Sigma) or zebrafish NKBs for 6 h, and then harvested and analyzed. Lysates prepared from the harvested cells were assayed for both luciferase activity and β-galactosidase activity, which was used as an internal standard to normalize the luciferase activity directed by the test plasmid. Transfection experiments were performed in triplicate with three independently isolated sets. Protein structure prediction of zebrafish NKBa, NKBb or NKF were performed on I-Tasser servers.
(§2) The response, binding selectivity and signal transduction pathways of the novel tachykinin receptors to their agonists were evaluated by functional expression analysis, using COS-7 cells.
(§3) The NKB analogues (i.e. the NKBa-analog, NKBb-analog and NKF-analog, as denoted by SEQ ID NO. 44-46) were first analyzed in comparison to their native forms in a transactivation assay, using reporter genes for specific signal transduction pathways. To validate the specificity of the serum-responsive element (SRE)-Luc and cAMP-responsive element (CRE)-Luc reporter systems, specific activators for PLC/PKC and AC/PKA signaling pathways were used in control experiments.
(§4) Thus, the ability of the three novel piscine peptides (namely, NKBa, NKBb and NKF, denoted by SEQ ID NO.40, 41 and 42), as well as the ability of the three analogous agonistic peptides, namely, NKBa-analog, NKBb-analog and NKF-analog, to differentially activate the different tac3 receptors, using SRE as a reporter gene that follows PKC activation and CRE as a reporter gene for the PKA pathway, was tested. Human NK3R (human NKB receptor) and human NKB served as controls.

huNK3R = target: T1, huNK3R (Homo sapiens, UniProt P29371); assay: Receptor transactivation assay, SRE-Luc reporter (PKC activation), COS-7 cells expressing human NK3R; format: cell-based
T1 construct: host or cells: COS-7
T1 sequence (P29371 1-465): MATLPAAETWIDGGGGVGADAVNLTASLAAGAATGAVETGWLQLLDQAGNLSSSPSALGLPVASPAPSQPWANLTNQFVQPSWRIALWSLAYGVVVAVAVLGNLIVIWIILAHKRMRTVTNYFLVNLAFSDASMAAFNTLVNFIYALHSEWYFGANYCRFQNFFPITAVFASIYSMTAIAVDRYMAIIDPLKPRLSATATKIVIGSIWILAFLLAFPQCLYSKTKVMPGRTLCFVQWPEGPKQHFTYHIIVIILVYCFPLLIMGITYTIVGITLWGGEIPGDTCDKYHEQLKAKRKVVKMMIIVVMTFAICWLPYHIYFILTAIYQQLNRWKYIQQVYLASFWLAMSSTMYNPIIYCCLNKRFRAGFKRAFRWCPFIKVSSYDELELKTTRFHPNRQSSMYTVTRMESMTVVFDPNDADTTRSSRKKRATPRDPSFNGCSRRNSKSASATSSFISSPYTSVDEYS
Experimental: In order to study the signaling pathways of the novel zebrafish NKBs, the entire coding regions of zftac3ra (denoted by SEQ ID NO:6) or zftac3rb (denoted by SEQ ID NO:7), or the cDNA clone for human NK3R (obtained from the Missouri S&T cDNA Resource Center, were inserted into pcDNA3.1 (Invitrogen). The luciferase assay was conducted according to Biran et al., 2008 [4] COS-7 cells were grown in DMEM supplemented with 10% FBS, 1% glutamine, 100 U/ml penicillin, and 100 mg/ml streptomycin (Biological Industries) under 5% CO2 until confluent. Cotransfection of either pc-zftac3ra, pc-zftac3rb or pc-Htac3r (at 3 μg/plate), a reporter plasmid (at 2 μg/plate), and pCMV-β-galactosidase (at 1 μg/plate) was carried out with FuGENE 6.0 reagent (Roche). The cells were serum starved for 36 h, stimulated with vehicle or various concentrations of either human (Sigma) or zebrafish NKBs for 6 h, and then harvested and analyzed. Lysates prepared from the harvested cells were assayed for both luciferase activity and β-galactosidase activity, which was used as an internal standard to normalize the luciferase activity directed by the test plasmid. Transfection experiments were performed in triplicate with three independently isolated sets.

zfTac3ra [2] = assay: Receptor transactivation assay, CRE-Luc reporter (PKA activation), COS-7 cells expressing zfTac3ra; format: cell-based, zebrafish; conditions: mean ± SEM
Experimental: as §1, §2, §3, §4

zfTac3ra [3] = assay: Receptor transactivation assay, SRE-Luc reporter (PKC activation), COS-7 cells expressing zfTac3ra; format: cell-based, zebrafish; conditions: mean ± SEM
Experimental: as §1, §2, §3, §4

[4] = system: NKB receptors (human NKBR, zebrafish Tac3ra, Tac3rb); assay: Receptor transactivation assay, statements in words across SRE-Luc and CRE-Luc reporters and receptors; format: cell-based
Experimental: as §1, §2, §4

[5] = target: T2, NKB receptors (human NKBR, zebrafish Tac3ra, Tac3rb) (Homo sapiens, UniProt P29371); assay: as above; format: cell-based; conditions: human NKBR (huNK3R), in both signal transduction systems (SRE-Luc and CRE-Luc)
T2 construct: expressed in transfected cells; host or cells: COS-7
T2 sequence (P29371 1-465): T1 sequence (P29371 1-465)
Experimental: as §1, §2, §4

zfTac3rb [6] = assay: Receptor transactivation assay, SRE-Luc reporter (PKC activation), COS-7 cells expressing zfTac3rb; format: cell-based, zebrafish; conditions: mean ± SEM
Experimental: as §1, §2, §3, §4

[7] = system: sexually mature female zebrafish; assay: In vivo effect of NKBs in zebrafish: LH secretion after intraperitoneal injection; conditions: single intraperitoneal injection
Experimental: In vivo studies involved administering NKBa, NKBb or NKF and the analogues thereof, denoted by SEQ ID NO. 40-42 and 44-46, respectively to immature fish (20 fish/treatment). The circulating levels of E2, 11KT, LH and FSH were determined prior to hormonal manipulations, in order to confirm that these fish were indeed sexually immature. The fish were injected intramuscularly (i.m.) or intraperitonealy (i.p.) at various doses. Adult female zebra fish were injected intraperitoneally with 20 pmol/g body weight. Control fish were injected with saline. Plasma samples were collected at time 0, and specific times after the administration of the peptide/s, to determine the levels of E2, 11KT, LH and FSH.
To further characterize the role of the NKB/NKBR system in fish reproduction the in vivo biological function of zebrafish NKB peptides was next examined.

EC50 (zfTac3rb [1]; Table 5, COS-7 cells, CRE-Luc follows PKA activation, read-out: EC50 CRE-Luc zfTac3rb): 4.55 ± 1.57 nM | EC50 (zfTac3rb [1]; Table 6 (native peptides and analogues), PKA activation, listed as NKBa, read-out: EC50 using CRE-Luc, zfTac3rb): 16 nM | EC50 (zfTac3rb [1]; Table 6 (native peptides and analogues), PKA activation, read-out: EC50 using CRE-Luc, zfTac3rb): 16.4 ± 12 nM | SRE-driven luciferase activity, response (huNK3R; COS-7 cells transiently transfected with human NK3R): elicited an increased response | EC50 (huNK3R; Table 5, COS-7 cells, SRE-Luc follows PKC activation, mean ± SEM): 0.49 ± 0.18 nM | EC50 (zfTac3ra [2]; Table 5, COS-7 cells, CRE-Luc follows PKA activation, read-out: EC50 CRE-Luc zfTac3ra): 5.75 ± 1.45 nM | EC50 (zfTac3ra [2]; Table 6 (native peptides and analogues), PKA activation, read-out: EC50 using CRE-Luc, zfTac3ra): 4.75 ± 1.48 nM | EC50 (zfTac3ra [3]; Table 5, COS-7 cells, SRE-Luc follows PKC activation, read-out: EC50 SRE-Luc zfTac3ra): 0.5 ± 0.17 nM | EC50 (zfTac3ra [3]; Table 7 (native peptides and analogues), PKC activation, read-out: EC50 using SRE, zfTac3ra): 0.62 ± 0.22 nM | effectiveness in the transactivation assay ([4]; native peptides versus analogues, Example 12): most effective peptide | potency [5]: high potency | EC50 (zfTac3rb [6]; Table 5, COS-7 cells, SRE-Luc follows PKC activation, read-out: EC50 SRE-Luc zfTac3rb): 1.47 ± 1.66 nM | EC50 (zfTac3rb [6]; Table 7 (native peptides and analogues), PKC activation, read-out: EC50 using SRE, zfTac3rb): 26.1 nM
SMILES: CC[C@H](C)[C@H](NC(=O)[C@H](CC(=O)O)NC(=O)[C@H](Cc1c[nH]cn1)NC(=O)[C@H](CCSC)NC(=O)[C@@H](N)CCC(=O)O)C(=O)N[C@@H](Cc1ccccc1)C(=O)N[C@H](C(=O)NCC(=O)N[C@@H](CC(C)C)C(=O)N[C@@H](CCSC)C(N)=O)C(C)C [zfNKBa] (H-EMHDIFVGLM-NH2)
potency ([4]; both zebrafish tac3 receptors, in both signal transduction systems): most potent among all tachykinins examined | LH secretion ([7]; 20 pmol/g body weight, sexually mature female zebrafish): significant increase; also recorded: significant LH secretion | magnitude of the induced LH discharge ([7]; compared with GnRH): comparable with that observed in response to GnRH
